Assay results taken from patent US20230263822A1, “MODULATION OF FACTOR 11 EXPRESSION” (Ionis Pharmaceuticals, Inc., priority 2008, published 2023).
Strand notation (5' to 3'): a small letter for the sugar, then the base; units joined by * are phosphorothioate-linked, units joined directly phosphodiester-linked; [ ] holds rarer units or linkages, { } end groups; capitals alone tell only the bases. e = 2'-O-(2-methoxyethyl) (MOE); [5mC] = 5-methylcytosine; d = 2'-deoxy (DNA)

System: human Factor 11 mRNA
Assay: Antisense inhibition of human Factor 11 in HepG2 cells by microwalk gapmers, lipofectin, 75 nM (Example 3)
Format: cell-based
Settings: HepG2, lipofectin, ~24 h, gapmers targeted to nucleobases 656 to 704 of SEQ ID NO: 1
Description: These gapmers were designed by creating gapmers shifted slightly upstream and downstream (i.e. “microwalk”) of the original gapmers from Table 3. Gapmers were also created with various motifs, e.g. 5-10-5 MOE, 3-14-3 MOE, and 2-13-5 MOE. These gapmers were tested in vitro. Cultured HepG2 cells at a density of 10,000 cells per well were transfected using lipofectin reagent with 75 nM antisense oligonucleotide. After a treatment period of approximately 24 hours, RNA was isolated from the cells and Factor 11 mRNA levels were measured by quantitative real-time PCR. Factor 11 mRNA levels were adjusted according to total RNA content, as measured by RIBOGREEN. Results are presented as percent inhibition of Factor 11, relative to untreated control cells.
The chimeric antisense oligonucleotides in Table 4 were designed as 5-10-5 MOE, 3-14-3 MOE, and 2-13-5 MOE gapmers. The first listed gapmers in Table 4 are the original gapmers (see Table 3) from which the remaining gapmers were designed via microwalk and are designated by an asterisk. The 5-10-5 gapmers are 20 nucleotides in length, wherein the central gap segment is comprised of 10 2′-deoxynucleotides and is flanked on both sides (in the 5′ and 3′ directions) by wings comprising 5 nucleotides each. The 3-14-3 gapmers are 20 nucleotides in length, wherein the central gap segment is comprised of 14 2′-deoxynucleotides and is flanked on both sides (in the 5′ and 3′ directions) by wings comprising 3 nucleotides each. The 2-13-5 gapmers are 20 nucleotides in length, wherein the central gap segment is comprised of 13 2′-deoxynucleotides. The central gap is flanked on the 5′ end with a wing comprising 2 nucleotides and on the 3′ end with a wing comprising 5 nucleotides. For each of the motifs (5-10-5, 3-14-3, and 2-13-5), each nucleotide in the 5′ wing segment and each nucleotide in the 3′ wing segment has a 2′-MOE modification. The internucleoside linkages throughout each gapmer are phosphorothioate (P=S) linkages. All cytidine residues throughout each gapmer are 5-methyl cytidines. “Target start site” indicates the 5′-most nucleotide to which the gapmer is targeted. “Target stop site” indicates the 3′-most nucleotide to which the gapmer is targeted. Each gapmer listed in Table 4 is targeted to SEQ ID NO: 1 (GENBANK Accession No. NM_000128.3).

Going from “416964 (antisense eT*e[5mC]*dA*dT*dG*dT*d[5mC]*dT*dA*dG*dG*dT*d[5mC]*d[5mC]*dA*e[5mC]*eA*eT*eA*eA) [compound 416964]” to “416967 (antisense e[5mC]*e[5mC]*dT*dT*d[5mC]*dA*dT*dG*dT*d[5mC]*dT*dA*dG*dG*dT*e[5mC]*e[5mC]*eA*e[5mC]*eA) [compound 416967]”, the “% inhibition” value rises from 69% to 75%.

Going from “416873 (antisense eA*e[5mC]*eA*dT*dA*dA*dA*dT*dG*dT*d[5mC]*dT*dT*dT*dG*dT*dT*eG*e[5mC]*eA) [compound 416873]” to “416962 (antisense eA*eT*dG*dT*d[5mC]*dT*dA*dG*dG*dT*d[5mC]*d[5mC]*dA*d[5mC]*dA*eT*eA*eA*eA*eT) [compound 416962]”, the “% inhibition” value rises from 51% to 77%.

First: 416948 (antisense eA*eT*dA*dA*dA*dT*dG*dT*d[5mC]*dT*dT*dT*dG*dT*dT*eG*e[5mC]*eA*eA*eG) [compound 416948]
Second: 416951 (antisense e[5mC]*eA*d[5mC]*dA*dT*dA*dA*dA*dT*dG*dT*d[5mC]*dT*dT*dT*eG*eT*eT*eG*e[5mC]) [compound 416951]
The “% inhibition” value of the first is higher: 62% for the first, 48% for the second.

Going from “416870 (antisense eT*eA*eA*dA*dT*dG*dT*d[5mC]*dT*dT*dT*dG*dT*dT*dG*d[5mC]*dA*eA*eG*e[5mC]) [compound 416870]” to “416879 (antisense eA*eG*eG*dT*d[5mC]*d[5mC]*dA*d[5mC]*dA*dT*dA*dA*dA*dT*dG*dT*d[5mC]*eT*eT*eT) [compound 416879]”, the “% inhibition” value rises from 76% to 92%.

Compared with “416874 (antisense e[5mC]*eA*e[5mC]*dA*dT*dA*dA*dA*dT*dG*dT*d[5mC]*dT*dT*dT*dG*dT*eT*eG*e[5mC]) [compound 416874]”, “416819 (antisense eA*eT*eG*eT*e[5mC]*dT*dA*dG*dG*dT*d[5mC]*d[5mC]*dA*d[5mC]*dA*eT*eA*eA*eA*eT) [compound 416819]” is higher in “% inhibition” value: 49% for the first, 56% for the second.

Going from “416823 (antisense e[5mC]*e[5mC]*eT*eT*e[5mC]*dA*dT*dG*dT*d[5mC]*dT*dA*dG*dG*dT*e[5mC]*e[5mC]*eA*e[5mC]*eA) [compound 416823]” to “416889 (antisense e[5mC]*eT*eT*d[5mC]*dA*dT*dG*dT*d[5mC]*dT*dA*dG*dG*dT*d[5mC]*d[5mC]*dA*e[5mC]*eA*eT) [compound 416889]”, the “% inhibition” value falls from 77% to 60%.

First: 416959 (antisense eT*e[5mC]*dT*dA*dG*dG*dT*d[5mC]*d[5mC]*dA*d[5mC]*dA*dT*dA*dA*eA*eT*eG*eT*e[5mC]) [compound 416959]
Second: 416893 (antisense eT*eG*e[5mC]*d[5mC]*d[5mC]*dT*dT*d[5mC]*dA*dT*dG*dT*d[5mC]*dT*dA*dG*dG*eT*e[5mC]*e[5mC]) [compound 416893]
The “% inhibition” value of the first is lower: 25% for the first, 90% for the second.

Going from “416812 (antisense eT*e[5mC]*e[5mC]*eA*e[5mC]*dA*dT*dA*dA*dA*dT*dG*dT*d[5mC]*dT*eT*eT*eG*eT*eT) [compound 416812]” to “416974 (antisense eT*eT*dT*dA*dT*dG*d[5mC]*d[5mC]*d[5mC]*dT*dT*d[5mC]*dA*dT*dG*eT*e[5mC]*eT*eA*eG) [compound 416974]”, the “% inhibition” value rises from 59% to 73%.

Compared with “416954 (antisense eG*eT*d[5mC]*d[5mC]*dA*d[5mC]*dA*dT*dA*dA*dA*dT*dG*dT*d[5mC]*eT*eT*eT*eG*eT) [compound 416954]”, “416971 (antisense eA*eT*dG*d[5mC]*d[5mC]*d[5mC]*dT*dT*d[5mC]*dA*dT*dG*dT*d[5mC]*dT*eA*eG*eG*eT*e[5mC]) [compound 416971]” is higher in “% inhibition” value: 61% for the first, 83% for the second.

“416888 (antisense eT*eT*e[5mC]*dA*dT*dG*dT*d[5mC]*dT*dA*dG*dG*dT*d[5mC]*d[5mC]*dA*d[5mC]*eA*eT*eA) [compound 416888]” was tested, and the “% inhibition” value was 76%.

Same assay, conditions: HepG2 cells, lipofectin, gapmers targeted to nucleobases 738 to 762 of SEQ ID NO: 1

Going from “416899 (antisense eT*e[5mC]*e[5mC]*dG*dT*dG*d[5mC]*dA*dT*d[5mC]*dT*dT*dT*d[5mC]*dT*dT*dG*eG*e[5mC]*eA) [compound 416899]” to “416834 (antisense eG*eT*e[5mC]*eA*eT*d[5mC]*d[5mC]*dG*dT*dG*d[5mC]*dA*dT*d[5mC]*dT*eT*eT*e[5mC]*eT*eT) [compound 416834]”, the “% inhibition” value falls from 86% to 58%.

Going from “416832 (antisense e[5mC]*eA*eT*e[5mC]*e[5mC]*dG*dT*dG*d[5mC]*dA*dT*d[5mC]*dT*dT*dT*e[5mC]*eT*eT*eG*eG) [compound 416832]” to “416830 (antisense eT*e[5mC]*e[5mC]*eG*eT*dG*d[5mC]*dA*dT*d[5mC]*dT*dT*dT*d[5mC]*dT*eT*eG*eG*e[5mC]*eA) [compound 416830]”, the “% inhibition” value rises from 79% to 81%.

Same assay, conditions: HepG2 cells, lipofectin, gapmers targeted to nucleobases 1018 to 1042 of SEQ ID NO: 1

In the case of “416981 (antisense e[5mC]*e[5mC]*dG*dG*dG*dA*dT*dG*dA*dT*dG*dA*dG*dT*dG*e[5mC]*eA*eG*eA*eT) [compound 416981]”, the “% inhibition” value is reported as 87%.

Same assay, conditions: HepG2 cells, lipofectin, gapmers targeted to nucleobases 1062 to 1091 of SEQ ID NO: 1

Compared with “416916 (antisense e[5mC]*eT*eT*dT*dG*dA*dG*dA*dT*dT*d[5mC]*dT*dT*dT*dG*dG*dG*e[5mC]*e[5mC]*eA) [compound 416916]”, “416991 (antisense eT*eT*dG*dA*dG*dA*dT*dT*d[5mC]*dT*dT*dT*dG*dG*dG*e[5mC]*e[5mC]*eA*eT*eT) [compound 416991]” is lower in “% inhibition” value: 91% for the first, 87% for the second.

Going from “416995 (antisense eT*eT*d[5mC]*dT*dT*dT*dG*dA*dG*dA*dT*dT*d[5mC]*dT*dT*eT*eG*eG*eG*e[5mC]) [compound 416995]” to “416996 (antisense eT*eT*dT*d[5mC]*dT*dT*dT*dG*dA*dG*dA*dT*dT*d[5mC]*dT*eT*eT*eG*eG*eG) [compound 416996]”, the “% inhibition” value falls from 64% to 22%.

Compared with “416839 (antisense eG*eA*eT*eT*e[5mC]*dT*dT*dT*dG*dG*dG*d[5mC]*d[5mC]*dA*dT*eT*e[5mC]*e[5mC]*eT*eG) [compound 416839]”, “416909 (antisense eA*eT*eT*d[5mC]*dT*dT*dT*dG*dG*dG*d[5mC]*d[5mC]*dA*dT*dT*d[5mC]*d[5mC]*eT*eG*eG) [compound 416909]” is lower in “% inhibition” value: 89% for the first, 78% for the second.

Same assay, conditions: HepG2 cells, lipofectin, gapmers targeted to nucleobases 1275 to 1318 of SEQ ID NO: 1

Compared with “417007 (antisense eG*e[5mC]*dA*dT*dT*dG*dG*dT*dG*d[5mC]*dA*d[5mC]*dA*dG*dT*eT*eT*e[5mC]*eT*eG) [compound 417007]”, “417021 (antisense eA*e[5mC]*dT*dG*dG*d[5mC]*dA*dG*d[5mC]*dG*dG*dA*d[5mC]*dG*dG*e[5mC]*eA*eT*eT*eG) [compound 417021]” is lower in “% inhibition” value: 82% for the first, 74% for the second.

Compared with “417010 (antisense eA*e[5mC]*dG*dG*d[5mC]*dA*dT*dT*dG*dG*dT*dG*d[5mC]*dA*d[5mC]*eA*eG*eT*eT*eT) [compound 417010]”, “416937 (antisense eG*e[5mC]*eG*dG*dA*d[5mC]*dG*dG*d[5mC]*dA*dT*dT*dG*dG*dT*dG*d[5mC]*eA*e[5mC]*eA) [compound 416937]” is higher in “% inhibition” value: 81% for the first, 93% for the second.

Compared with “416933 (antisense eA*e[5mC]*eG*dG*d[5mC]*dA*dT*dT*dG*dG*dT*dG*d[5mC]*dA*d[5mC]*dA*dG*eT*eT*eT) [compound 416933]”, “417008 (antisense eG*eG*d[5mC]*dA*dT*dT*dG*dG*dT*dG*d[5mC]*dA*d[5mC]*dA*dG*eT*eT*eT*e[5mC]*eT) [compound 417008]” is lower in “% inhibition” value: 92% for the first, 82% for the second.

First: 417005 (antisense eA*eT*dT*dG*dG*dT*dG*d[5mC]*dA*d[5mC]*dA*dG*dT*dT*dT*e[5mC]*eT*eG*eG*e[5mC]) [compound 417005]
Second: 417017 (antisense eG*e[5mC]*dA*dG*d[5mC]*dG*dG*dA*d[5mC]*dG*dG*d[5mC]*dA*dT*dT*eG*eG*eT*eG*e[5mC]) [compound 417017]
The “% inhibition” value of the first is lower: 79% for the first, 82% for the second.

Compared with “417019 (antisense eT*eG*dG*d[5mC]*dA*dG*d[5mC]*dG*dG*dA*d[5mC]*dG*dG*d[5mC]*dA*eT*eT*eG*eG*eT) [compound 417019]”, “416938 (antisense eA*eG*e[5mC]*dG*dG*dA*d[5mC]*dG*dG*d[5mC]*dA*dT*dT*dG*dG*dT*dG*e[5mC]*eA*e[5mC]) [compound 416938]” is higher in “% inhibition” value: 84% for the first, 90% for the second.

In the case of “417004 (antisense eT*eT*dG*dG*dT*dG*d[5mC]*dA*d[5mC]*dA*dG*dT*dT*dT*d[5mC]*eT*eG*eG*e[5mC]*eA) [compound 417004]”, the “% inhibition” value is reported as 86%.
